The molecules below were run against T1, NLRP3 (Homo sapiens, UniProt Q96P20) (assay: IL-1β Secretion Assay (NLRP3-dependent IL1β secretion in THP1 cells)). Details: PMA-differentiated THP-1 cells; compounds incubated 20 h; 2.5 μM Nigericin 3 h; HTRF IL-1β readout; read-out: IC50 IL-1β Inhibition.
T1 construct: host or cells: THP-1 cells differentiated with PMA
Assay type: cell-based
How it was run: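 THP-1 cells differentiated with 100 ng/mL PMA for 24 h, then given compound (7-point 3-fold series, 1:200 from DMSO) for 20 h in RPMI+5% FBS. NLRP3 activated with 2.5 μM nigericin for 3 h; secreted IL-1β measured by HTRF; IC50 from logistic fit of % inhibition.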

T1 sequence (Q96P20 whole entry): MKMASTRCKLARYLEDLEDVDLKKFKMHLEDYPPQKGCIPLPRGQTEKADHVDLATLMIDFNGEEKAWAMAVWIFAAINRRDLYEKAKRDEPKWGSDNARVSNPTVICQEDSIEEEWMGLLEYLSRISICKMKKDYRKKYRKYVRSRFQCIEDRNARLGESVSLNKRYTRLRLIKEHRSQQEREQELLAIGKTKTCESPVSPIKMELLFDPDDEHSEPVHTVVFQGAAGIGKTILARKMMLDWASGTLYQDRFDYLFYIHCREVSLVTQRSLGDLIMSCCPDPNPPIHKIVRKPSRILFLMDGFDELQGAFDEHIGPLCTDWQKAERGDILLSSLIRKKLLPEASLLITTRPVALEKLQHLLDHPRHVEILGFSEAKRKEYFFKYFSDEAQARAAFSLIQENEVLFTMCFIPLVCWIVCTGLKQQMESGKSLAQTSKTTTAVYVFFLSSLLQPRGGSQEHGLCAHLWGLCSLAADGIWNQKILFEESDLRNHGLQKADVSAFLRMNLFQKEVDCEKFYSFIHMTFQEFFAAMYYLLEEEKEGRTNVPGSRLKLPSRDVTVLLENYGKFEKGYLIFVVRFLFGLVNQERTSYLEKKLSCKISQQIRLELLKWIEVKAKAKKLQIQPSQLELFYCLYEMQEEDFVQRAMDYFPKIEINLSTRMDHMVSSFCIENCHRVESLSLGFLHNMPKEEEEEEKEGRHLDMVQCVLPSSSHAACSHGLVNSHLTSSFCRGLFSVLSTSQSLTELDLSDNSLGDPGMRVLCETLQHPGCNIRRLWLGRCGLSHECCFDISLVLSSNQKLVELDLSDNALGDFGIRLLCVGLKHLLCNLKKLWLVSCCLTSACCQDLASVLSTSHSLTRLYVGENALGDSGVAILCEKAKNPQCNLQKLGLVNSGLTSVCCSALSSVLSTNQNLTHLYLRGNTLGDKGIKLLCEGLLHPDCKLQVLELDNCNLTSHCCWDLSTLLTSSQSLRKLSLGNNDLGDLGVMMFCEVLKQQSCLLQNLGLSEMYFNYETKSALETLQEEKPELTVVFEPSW

`COCC1CC(Nc2nnc(-c3ccc(C(F)(F)F)cc3OC(F)(F)F)c3cncn23)C1` (stereo not shown) [Compound 324, N-[3-(methoxymethyl)cyclobutyl]-1-[2-(trifluoromethoxy)-4-(trifluoromethyl)phenyl]imidazo[1,5-d][1,2,4]triazin-4-amine] and `CC(C)(O)C1CC(Nc2nnc(-c3ccc(C(F)(F)F)cc3OC(F)(F)F)c3cncn23)C1` (stereo not shown) [Compound 325, 2-[3-({1-[2-(trifluoromethoxy)-4-(trifluoromethyl)phenyl]imidazo[1,5-d][1,2,4]triazin-4-yl}amino)cyclobutyl]propan-2-ol] fall in the same range of IC50: 10 to 100 nM for the first, 10 to 100 nM for the second.

`COCC1CC(Nc2nnc(-c3ccc(OC)cc3CC(F)(F)F)c3cncn23)C1` (stereo not shown) [Compound 326, N-[3-(methoxymethyl)cyclobutyl]-1-[4-methoxy-2-(2,2,2-trifluoroethyl)phenyl]imidazo[1,5-d][1,2,4]triazin-4-amine] and `COc1ccc(-c2nnc(NC3CC(C(C)(C)O)C3)n3cncc23)c(CC(F)(F)F)c1` (stereo not shown) [Compound 327, 2-[3-({1-[4-methoxy-2-(2,2,2-trifluoroethyl)phenyl]imidazo[1,5-d][1,2,4]triazin-4-yl}amino)cyclobutyl]propan-2-ol] fall in the same range of IC50: 10 to 100 nM for the first, 10 to 100 nM for the second.

`CN1CCCC(Nc2nnc(-c3ccc(OC(F)F)cc3OC(F)(F)F)c3cncn23)C1=O` (stereo not shown) [Compound 328, 3-({1-[4-(difluoromethoxy)-2-(trifluoromethoxy)phenyl]imidazo[1,5-d][1,2,4]triazin-4-yl}amino)-1-methylpiperidin-2-one] and `COc1ccc(-c2nnc(NC3CCCN(C)C3=O)n3cncc23)c(CC(F)(F)F)c1` (stereo not shown) [Compound 330, 3-({1-[4-methoxy-2-(2,2,2-trifluoroethyl)phenyl]imidazo[1,5-d][1,2,4]triazin-4-yl}amino)-1-methylpiperidin-2-one] fall in the same range of IC50: 10 to 100 nM for the first, 10 to 100 nM for the second.

Compared with `CN1CCCC(Nc2nnc(-c3ccc(C(F)(F)F)cc3CC(F)(F)F)c3cncn23)C1=O` (stereo not shown) [Compound 329, 1-methyl-3-({1-[2-(2,2,2-trifluoroethyl)-4-(trifluoromethyl)phenyl]imidazo[1,5-d][1,2,4]triazin-4-yl}amino)piperidin-2-one], `C[C@]1(CO)C[C@@H](Nc2nnc(-c3ccc(C(F)(F)F)cc3CC(F)(F)F)c3cncn23)C1` [Compound 343, [(1s,3s)-1-methyl-3-({1-[2-(2,2,2-trifluoroethyl)-4-(trifluoromethyl)phenyl]imidazo[1,5-d][1,2,4]triazin-4-yl}amino)cyclobutyl]methanol] is lower in IC50: 1 to 10 nM for the first, under 1 nM for the second. The second is the more potent here.

`O[C@@H]1COCC[C@H]1Nc1nnc(-c2ccc(OC(F)F)cc2OC(F)(F)F)c2cncn12` [Compound 331, (3S,4R)-4-({1-[4-(difluoromethoxy)-2-(trifluoromethoxy)phenyl]imidazo[1,5-d][1,2,4]triazin-4-yl}amino)oxan-3-ol] and `O[C@@H]1COCC[C@H]1Nc1nnc(-c2ccc(C(F)(F)F)cc2C2CC2)c2cncn12` [Compound 334, (3S,4R)-4-({1-[2-cyclopropyl-4-(trifluoromethyl)phenyl]imidazo[1,5-d][1,2,4]triazin-4-yl}amino)oxan-3-ol] fall in the same range of IC50: 10 to 100 nM for the first, 10 to 100 nM for the second.

First: Cc1ccc(-c2nnc(N[C@H]3C[C@@](C)(O)C3)n3cncc23)c(OC(F)(F)F)c1 [Compound 332, (1s,3s)-1-methyl-3-({1-[4-methyl-2-(trifluoromethoxy)phenyl]imidazo[1,5-d][1,2,4]triazin-4-yl}amino)cyclobutan-1-ol]
Second: C[C@]1(O)C[C@@H](Nc2nnc(-c3ccc(C4CC4)cc3OC(F)(F)F)c3cncn23)C1 [Compound 346, (1s,3s)-3-({1-[4-cyclopropyl-2-(trifluoromethoxy)phenyl]imidazo[1,5-d][1,2,4]triazin-4-yl}amino)-1-methylcyclobutan-1-ol]
The IC50 of the first is higher: 10 to 100 nM for the first, 1 to 10 nM for the second. The second is the more potent here.

`O=C1NCCC1Nc1nnc(-c2ccc(C(F)(F)F)cc2C2CC2)c2cncn12` (stereo not shown) [Compound 333, 3-({1-[2-cyclopropyl-4-(trifluoromethyl)phenyl]imidazo[1,5-d][1,2,4]triazin-4-yl}amino)pyrrolidin-2-one] and `O=C1NCCC1Nc1nnc(-c2ccc(C3CC3)cc2CC(F)(F)F)c2cncn12` (stereo not shown) [Compound 350, 3-({1-[4-cyclopropyl-2-(2,2,2-trifluoroethyl)phenyl]imidazo[1,5-d][1,2,4]triazin-4-yl}amino)pyrrolidin-2-one] fall in the same range of IC50: 1 to 10 nM for the first, 1 to 10 nM for the second.

First: CC1(CO)CC(Nc2nnc(-c3ccc(C(F)(F)F)cc3OC(F)(F)F)c3cncn23)C1 (stereo not shown) [Compound 335, [1-methyl-3-({1-[2-(trifluoromethoxy)-4-(trifluoromethyl)phenyl]imidazo[1,5-d][1,2,4]triazin-4-yl}amino)cyclobutyl]methanol]
Second: C[C@]1(CO)C[C@@H](Nc2nnc(-c3ccc(C(F)(F)F)cc3OC(F)(F)F)c3cncn23)C1 [Compound 340, [(1s,3s)-1-methyl-3-({1-[2-(trifluoromethoxy)-4-(trifluoromethyl)phenyl]imidazo[1,5-d][1,2,4]triazin-4-yl}amino)cyclobutyl]methanol]
The IC50 of the first is higher: 10 to 100 nM for the first, 1 to 10 nM for the second. The second is the more potent here.

`COc1ccc(-c2nnc(N[C@H]3C[C@](C)(CO)C3)n3cncc23)c(CC(F)(F)F)c1` [Compound 336, [(1r,3r)-3-({1-[4-methoxy-2-(2,2,2-trifluoroethyl)phenyl]imidazo[1,5-d][1,2,4]triazin-4-yl}amino)-1-methylcyclobutyl]methanol] and `COc1ccc(-c2nnc(NC3CC(C)(CO)C3)n3cncc23)c(CC(F)(F)F)c1` (stereo not shown) [Compound 337, [3-({1-[4-methoxy-2-(2,2,2-trifluoroethyl)phenyl]imidazo[1,5-d][1,2,4]triazin-4-yl}amino)-1-methylcyclobutyl]methanol] fall in the same range of IC50: 10 to 100 nM for the first, 10 to 100 nM for the second.

First: COc1ccc(-c2nnc(NC3CC(C(C)(C)O)C3)n3cncc23)c(OC(F)(F)F)c1 (stereo not shown) [Compound 338, 2-[3-({1-[4-methoxy-2-(trifluoromethoxy)phenyl]imidazo[1,5-d][1,2,4]triazin-4-yl}amino)cyclobutyl]propan-2-ol]
Second: COc1ccc(-c2nnc(N[C@H]3C[C@@](C)(CO)C3)n3cncc23)c(OC(F)(F)F)c1 [Compound 342, [(1s,3s)-3-({1-[4-methoxy-2-(trifluoromethoxy)phenyl]imidazo[1,5-d][1,2,4]triazin-4-yl}amino)-1-methylcyclobutyl]methanol]
The IC50 of the first is higher: 100 to 300 nM for the first, 10 to 100 nM for the second. The second is the more potent here.

First: CC(C)(O)C1CC(Nc2nnc(-c3ccc(C(F)(F)F)cc3CC(F)(F)F)c3cncn23)C1 (stereo not shown) [Compound 339, 2-[3-({1-[2-(2,2,2-trifluoroethyl)-4-(trifluoromethyl)phenyl]imidazo[1,5-d][1,2,4]triazin-4-yl}amino)cyclobutyl]propan-2-ol]
Second: OC[C@H]1C[C@@H](Nc2nnc(-c3ccc(C4CC4)cc3CC(F)(F)F)c3cncn23)C1 [Compound 349, [(1s,3s)-3-({1-[4-cyclopropyl-2-(2,2,2-trifluoroethyl)phenyl]imidazo[1,5-d][1,2,4]triazin-4-yl}amino)cyclobutyl]methanol]
The IC50 of the first is higher: 10 to 100 nM for the first, 1 to 10 nM for the second. The second is the more potent here.

First: COc1ccc(-c2nnc(N[C@H]3C[C@@](C)(CO)C3)n3cncc23)c(CC(F)(F)F)c1 [Compound 341, [(1s,3s)-3-({1-[4-methoxy-2-(2,2,2-trifluoroethyl)phenyl]imidazo[1,5-d][1,2,4]triazin-4-yl}amino)-1-methylcyclobutyl]methanol]
Second: C[C@]1(O)C[C@@H](Nc2nnc(-c3ccc(C4CC4)cc3CC(F)(F)F)c3cncn23)C1 [Compound 348, (1s,3s)-3-({1-[4-cyclopropyl-2-(2,2,2-trifluoroethyl)phenyl]imidazo[1,5-d][1,2,4]triazin-4-yl}amino)-1-methylcyclobutan-1-ol]
The IC50 of the first is higher: 10 to 100 nM for the first, under 1 nM for the second.

First: Cc1ccc(-c2nnc(N[C@H]3C[C@@](C)(O)C3)n3cncc23)c(OC(F)F)c1 [Compound 344, (1s,3s)-3-({1-[2-(difluoromethoxy)-4-methylphenyl]imidazo[1,5-d][1,2,4]triazin-4-yl}amino)-1-methylcyclobutan-1-ol]
Second: C[C@]1(O)C[C@@H](Nc2nnc(-c3ccc(C4CC4)cc3OC(F)F)c3cncn23)C1 [Compound 345, (1s,3s)-3-({1-[4-cyclopropyl-2-(difluoromethoxy)phenyl]imidazo[1,5-d][1,2,4]triazin-4-yl}amino)-1-methylcyclobutan-1-ol]
The IC50 of the first is higher: 10 to 100 nM for the first, 1 to 10 nM for the second. The second is the more potent here.

First: Cc1ccc(-c2nnc(N[C@H]3C[C@@H](CO)C3)n3cncc23)c(OC(F)(F)F)c1 [Compound 347, [(1s,3s)-3-({1-[4-methyl-2-(trifluoromethoxy)phenyl]imidazo[1,5-d][1,2,4]triazin-4-yl}amino)cyclobutyl]methanol]
Second: CN1CCC[C@@H](Nc2nnc(-c3ccc(C4CC4)cc3CC(F)(F)F)c3cncn23)C1 [Compound 352, 1-[4-cyclopropyl-2-(2,2,2-trifluoroethyl)phenyl]-N-[(3R)-1-methylpiperidin-3-yl]imidazo[1,5-d][1,2,4]triazin-4-amine]
The IC50 of the first is higher: 10 to 100 nM for the first, 1 to 10 nM for the second.

`O[C@@H]1COCC[C@H]1Nc1nnc(-c2ccc(C3CC3)cc2CC(F)(F)F)c2cncn12` [Compound 351, (3S,4R)-4-({1-[4-cyclopropyl-2-(2,2,2-trifluoroethyl)phenyl]imidazo[1,5-d][1,2,4]triazin-4-yl}amino)oxan-3-ol] and `O[C@H]1CCC[C@@H](Nc2nnc(-c3ccc(C4CC4)cc3CC(F)(F)F)c3cncn23)C1` [Compound 353, (1S,3R)-3-({1-[4-cyclopropyl-2-(2,2,2-trifluoroethyl)phenyl]imidazo[1,5-d][1,2,4]triazin-4-yl}amino)cyclohexan-1-ol] fall in the same range of IC50: 1 to 10 nM for the first, 1 to 10 nM for the second.

With `CC(Nc1nnc(-c2ccc(C3CC3)cc2CC(F)(F)F)c2cncn12)c1cccc(O)c1` (stereo not shown) [Compound 354, 3-[1-({1-[4-cyclopropyl-2-(2,2,2-trifluoroethyl)phenyl]imidazo[1,5-d][1,2,4]triazin-4-yl}amino)ethyl]phenol] the IC50 was 1 to 10 nM.
